From patent publication US20210038587A1, “METHODS AND COMPOSITIONS FOR TREATING NON-ERK MAPK PATHWAY INHIBITOR-RESISTANT CANCERS” (BIOMED VALLEY DISCOVERIES, INC., priority 2013, published 2021)
“And” between values parts separate entries of the source, which are not always exact repeats. Equal entries are not always repeated.

Legend:
CDK2/cyclinA = CDK2/cyclinA (Homo sapiens, UniProt P24941); assay: Kinase counter-screen, Ki; type: biochemical
Description: (§2) The ATP concentrations were approximately equal to the Km in all assays.

CDK5/p35 = CDK5/p35 (Homo sapiens, UniProt Q00535); assay: Kinase counter-screen, Ki; type: biochemical; settings: apparent Ki
Description: as §2

CDK6/cycinD3 = CDK6/cycinD3 (Homo sapiens, UniProt Q00534); assay: Kinase counter-screen, Ki; type: biochemical; settings: apparent Ki
Description: as §2

JNK2α = JNK2α (Homo sapiens, UniProt P45984); assay: Kinase counter-screen, Ki; type: biochemical; settings: apparent Ki
Description: as §2

JNK3 = JNK3 (Homo sapiens, UniProt P53779); assay: Kinase counter-screen, Ki; type: biochemical
Description: as §2

P38γ = P38γ (Homo sapiens, UniProt P53778); assay: Kinase counter-screen, Ki; type: biochemical; settings: apparent Ki
Description: as §2

A375 xenografts = assay: A375 xenografts, BVD-523 in combination with dabrafenib; type: in vivo, mice; settings: 100 mg/kg BID
Text: For measurement of antitumor activity in A375 xenografts, xenografts were initiated with A375 cells maintained by serial subcutaneous transplantation in female athymic nude mice. Each test mouse received an A375 tumor fragment (1 mm^3) implanted subcutaneously in the right flank. Once tumors reached target size (80-120 mm^3), animals were randomized into treatment and control groups, and drug treatment was initiated.
(§1) Combination dosing was stopped on Day 20 to monitor for tumor regrowth. Animals were monitored individually and euthanized when each tumor reached an endpoint volume of 2000 mm^3, or the final day (Day 45), whichever came first, and median time to endpoint (TTE) calculated. The combination was also evaluated in an upstaged A375 model where larger tumors in the range 228-1008 mm^3 were evaluated. Here, mice were randomized into 1 group (Group 1) of 14 and 4 groups (Groups 2-5) of 20. […] Tumors were measured twice weekly. Combination dosing was stopped on Day 42 to monitor for tumor regrowth through study end (Day 60). Treatment outcome was determined from % TGD, defined as the percent increase in median TTE for treated versus control mice, with differences between groups analyzed via log rank survival analysis. […] Mice were also monitored for CR and PR responses. Animals with a CR at the end of the study were additionally classified as TFS.

upstaged A375 xenografts = assay: Upstaged A375 xenograft model, BVD-523 in combination with dabrafenib; type: in vivo, mice; settings: 100 mg/kg BID
Description: as §1

[1] = system: patient-derived xenograft (AT052C); assay: Patient-derived xenograft from vemurafenib-refractory BRAFV600E melanoma; type: in vivo, mice; settings: 100 mg/kg BID, 28 days
Description: Tumor fragments were harvested from host animals and implanted into immune-deficient mice.

[2] = system: PMA stimulated ERK activity (RSK-1 phosphorylation); assay: Phase I study: pharmacodynamic target inhibition (pRSK in patient whole blood); type: in vivo; settings: Homo sapiens, 360 h, prior to Day 15 dosing
advanced solid tumors = assay: Phase I study: antitumor response (RECIST v1.1, 18F-FDG-PET); type: in vivo, human
Description: For measurement of antitumor response, tumor measurements based on physical examination occurred at baseline and on the first day of each treatment cycle. CT and other assessments were made every 2 to 3 cycles. Findings were assessed in accordance with RECIST v1.1: CR was defined as disappearance of all target lesions; PR was defined as a ≥30% decrease in the sum of the longest diameters of target lesions, taking baseline measurements as reference; stable disease was defined as being of neither sufficient shrinkage to qualify for PR nor sufficient increase to qualify for progressive disease, taking as reference the baseline measurement.

RKO colorectal cell line = assay: Western blot of nuclear and cytoplasmic fractions; type: cell-based; settings: versus DMSO
Description: For Western blot analysis, A375 cells were seeded onto 10 cm dishes in Dulbecco's Modified Eagle's Medium plus 10% (v/v) FBS. Cells were allowed to adhere overnight prior to the addition of test compound or vehicle. For experiments with RKO cells, these cells were seeded in 6-well plates or 10 cm dishes with McCoy's 5A+10% (v/v) FBS. Cells were then treated at the desired concentration and duration. Cells were harvested by trypsinization, pelleted, and snap frozen. Lysates were prepared with RIPA buffer supplemented with protease and phosphatase inhibitor cocktails (Roche), clarified by centrifugation at 11,000 rpm for 10 minutes, and quantitated by bicinchoninic acid assay. Samples were resolved by SDS-PAGE, blotted onto polyvinylidene difluoride membranes, and probed using antibodies (i.e., pRB [Ser780], cat. no. 9307; CCND1, cat. no. ab6152; BCL-xL, cat. no. 2762; PARP, cat. no. 9542; DUSP6, cat. no. 3058S) directed to the indicated targets.
In resting cells, ERK1/2 localizes to the cytoplasm, and once stimulated pERK1/2 migrates to target organelles, particularly the nucleus where transcriptional targets are activated (Wainstein et al. 2016). In DMSO-treated control cells, pERK1/2 is evident in both nuclear and cytoplasmic fractions, which is likely reflective of MAPK pathway activity due to the presence of BRAF^V600E in this cell line.

Sequence of JNK2α (P45984 whole entry): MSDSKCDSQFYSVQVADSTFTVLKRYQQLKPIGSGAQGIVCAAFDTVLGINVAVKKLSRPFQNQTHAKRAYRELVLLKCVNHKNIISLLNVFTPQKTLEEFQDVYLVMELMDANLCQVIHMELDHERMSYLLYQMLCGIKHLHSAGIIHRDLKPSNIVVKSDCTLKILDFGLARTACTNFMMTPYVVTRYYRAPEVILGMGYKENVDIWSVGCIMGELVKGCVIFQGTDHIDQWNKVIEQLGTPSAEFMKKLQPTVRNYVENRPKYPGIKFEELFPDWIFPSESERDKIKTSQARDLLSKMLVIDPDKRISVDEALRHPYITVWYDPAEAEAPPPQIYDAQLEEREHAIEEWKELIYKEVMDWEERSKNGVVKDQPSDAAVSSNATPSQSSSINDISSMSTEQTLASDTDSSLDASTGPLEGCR
Sequence of JNK3 (P53779 whole entry, species assumed): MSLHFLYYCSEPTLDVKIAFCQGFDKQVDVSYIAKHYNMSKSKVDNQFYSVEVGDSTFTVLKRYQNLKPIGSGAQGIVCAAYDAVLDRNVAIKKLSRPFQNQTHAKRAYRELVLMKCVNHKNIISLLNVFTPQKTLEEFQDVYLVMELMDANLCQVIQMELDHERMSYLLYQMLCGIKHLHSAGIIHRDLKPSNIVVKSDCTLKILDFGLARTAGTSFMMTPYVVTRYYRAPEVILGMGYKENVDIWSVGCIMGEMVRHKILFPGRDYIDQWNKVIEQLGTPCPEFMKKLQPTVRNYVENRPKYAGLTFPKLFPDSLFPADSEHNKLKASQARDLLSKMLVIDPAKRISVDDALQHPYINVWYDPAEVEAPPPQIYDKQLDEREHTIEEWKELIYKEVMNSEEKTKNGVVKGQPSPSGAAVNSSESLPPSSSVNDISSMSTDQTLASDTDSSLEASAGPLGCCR
Sequence of CDK6/cycinD3 (Q00534 whole entry, species assumed): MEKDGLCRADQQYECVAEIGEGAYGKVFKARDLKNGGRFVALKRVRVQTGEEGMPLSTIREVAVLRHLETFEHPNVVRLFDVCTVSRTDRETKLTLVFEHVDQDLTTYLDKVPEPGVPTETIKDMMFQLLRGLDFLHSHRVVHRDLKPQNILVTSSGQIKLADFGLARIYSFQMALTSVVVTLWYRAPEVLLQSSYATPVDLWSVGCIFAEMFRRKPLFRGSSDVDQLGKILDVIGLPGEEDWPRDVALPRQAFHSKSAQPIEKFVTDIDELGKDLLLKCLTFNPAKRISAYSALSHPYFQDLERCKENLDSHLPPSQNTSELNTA
Sequence of CDK6/cycinD3 (P30281 whole entry partner, species assumed): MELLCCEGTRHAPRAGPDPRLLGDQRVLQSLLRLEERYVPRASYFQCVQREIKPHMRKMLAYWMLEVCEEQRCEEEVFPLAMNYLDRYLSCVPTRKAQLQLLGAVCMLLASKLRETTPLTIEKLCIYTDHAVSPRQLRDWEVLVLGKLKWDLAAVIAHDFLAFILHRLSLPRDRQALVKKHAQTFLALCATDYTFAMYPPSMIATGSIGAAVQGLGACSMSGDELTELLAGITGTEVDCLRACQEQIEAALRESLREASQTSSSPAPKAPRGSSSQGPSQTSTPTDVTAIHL
Sequence of P38γ (P53778 whole entry): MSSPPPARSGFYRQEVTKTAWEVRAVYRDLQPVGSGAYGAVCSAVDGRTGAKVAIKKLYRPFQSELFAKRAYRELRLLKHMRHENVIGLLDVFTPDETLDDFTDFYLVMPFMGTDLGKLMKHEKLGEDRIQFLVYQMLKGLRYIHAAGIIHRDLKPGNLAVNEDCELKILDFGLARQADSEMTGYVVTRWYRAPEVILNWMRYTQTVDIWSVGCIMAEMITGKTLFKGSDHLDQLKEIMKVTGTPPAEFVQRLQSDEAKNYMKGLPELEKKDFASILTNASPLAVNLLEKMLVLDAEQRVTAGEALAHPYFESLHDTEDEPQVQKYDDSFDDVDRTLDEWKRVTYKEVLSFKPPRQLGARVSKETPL
Sequence of CDK5/p35 (Q00535 whole entry, species assumed): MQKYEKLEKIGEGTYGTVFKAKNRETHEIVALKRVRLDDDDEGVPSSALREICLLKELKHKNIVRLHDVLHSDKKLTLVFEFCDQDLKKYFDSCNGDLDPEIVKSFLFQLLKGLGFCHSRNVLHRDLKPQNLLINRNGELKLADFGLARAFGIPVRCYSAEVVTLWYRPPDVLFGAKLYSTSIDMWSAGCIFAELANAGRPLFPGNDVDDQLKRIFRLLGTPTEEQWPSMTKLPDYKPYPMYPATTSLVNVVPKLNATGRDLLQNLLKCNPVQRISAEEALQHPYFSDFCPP
Sequence of CDK5/p35 (Q15078 whole entry partner, species assumed): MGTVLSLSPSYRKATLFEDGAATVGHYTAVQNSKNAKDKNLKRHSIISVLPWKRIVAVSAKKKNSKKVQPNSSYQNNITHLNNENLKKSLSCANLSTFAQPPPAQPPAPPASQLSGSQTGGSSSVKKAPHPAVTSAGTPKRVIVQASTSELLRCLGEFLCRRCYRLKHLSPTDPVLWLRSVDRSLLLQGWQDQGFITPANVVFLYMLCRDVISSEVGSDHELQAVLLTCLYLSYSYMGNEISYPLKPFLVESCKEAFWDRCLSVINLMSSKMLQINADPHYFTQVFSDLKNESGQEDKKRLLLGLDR

For `CC(C)Nc1cc(-c2c[nH]c(C(=O)N[C@H](CO)c3cccc(Cl)c3)c2)c(Cl)cn1` [BVD-523], the Ki (CDK2/cyclinA) was 360 nM, the Ki (CDK5/p35) was 90 nM and the Ki (CDK6/cycinD3) was 90 nM. The Ki (JNK2α) was 650 nM, the Ki (JNK3) was 1300 nM and the Ki (P38γ) was 450 nM. For the same compound, the durable complete responses (A375 xenografts) was 2, the PRs (upstaged A375 xenografts) was 2 and the TGI [1] was 78%. The inhibition at 10 mg ([2]; 10 mg BID) was 0%, the inhibition at 900 mg ([2]; 900 mg BID) was 93 ± 8% and the “durable partial response, duration of dosing” value (advanced solid tumors; 600 mg BID, progressed on prior vemurafenib and dabrafenib/trametinib) was over 300 days. For the same compound, the partial response (advanced solid tumors; 25 evaluable patients, all melanoma with BRAF^V600 mutations) was 3 patients, the “progressive disease at first evaluation” value (advanced solid tumors; in vivo) was 4 patients and the stable disease (advanced solid tumors; in vivo) was 18 patients. The “stable disease for more than 3 months (additional patients)” value (advanced solid tumors; in vivo) was 6 patients, the “stable disease for more than 6 months” value (advanced solid tumors; in vivo) was 6 patients and the “reduction in the sum of target lesions from baseline” value (advanced solid tumors; other partial responders) was 47.0% and 33.6%. The “reduction in the sum of target lesions from baseline” value (advanced solid tumors; partial responder at 450 mg BID) was about 70%, the “duration of partial response” value (advanced solid tumors; patient intolerant to other BRAF/MEK inhibitors, ongoing by data cutoff) was at least 313 days and the “duration of partial response” value (advanced solid tumors; patient refractory to prior BRAF/MEK inhibitors, ongoing) was at least 294 days.
`O=C(Nc1ccc2[nH]nc(-c3ccncc3)c2c1)[C@@H]1CCN(CC(=O)N2CCN(c3ccc(-c4ncccn4)cc3)CC2)C1` [SCH772984] was tested, and the “pERK1/2 in nuclear and cytoplasmic fractions” value (RKO colorectal cell line) was “inhibited phosphorylation of ERK1/2 and RSK”.
